Reference: patent US8551984B2, “Aminopyrimidines as SYK inhibitors” (Merck Sharp & Dohme Corp., priority 2009, dated 2013)

Tests used:
rhSYK = rhSYK (Homo sapiens, UniProt P43405); assay: biochemical
PGD2 = conditions: dosed intranasally, phase I/II study, allergic rhinitis; cited from earlier work

SMILES: Cc1cc(Nc2nccc(C3CC3)n2)cc(-c2cnc(C3(O)CCC(C(N)=O)C(C)(C)C3)s2)c1 (stereo not shown) [Example 119-118]
- IC50 (rhSYK): < 100 nM

SMILES: Cc1cc(Nc2nccc(C(C)C)n2)cc(-c2cnc(C3(O)CCC(C(N)=O)C(C)(C)C3)s2)c1 (stereo not shown) [Example 119-119]
- IC50 (rhSYK): < 100 nM

SMILES: Cc1cc(Nc2nccc(C(C)O)n2)cc(-c2cnc(C3(O)CCC(C(N)=O)C(C)(C)C3)s2)c1 (stereo not shown) [Example 119-120]
- IC50 (rhSYK): < 100 nM

SMILES: Cc1cc(Nc2nccc(C(C)F)n2)cc(-c2cnc(C3(O)CCC(C(N)=O)C(C)(C)C3)s2)c1 (stereo not shown) [Example 119-122]
- IC50 (rhSYK): < 100 nM

SMILES: Cc1cc(Nc2nccc(C(C)(C)C)n2)cc(-c2cnc(C3(O)CCC(C(N)=O)C(C)(C)C3)s2)c1 (stereo not shown) [Example 119-125]
- IC50 (rhSYK): < 100 nM

SMILES: Cc1cc(Nc2nccc(C(C)(C)O)n2)cc(-c2cnc(C3(O)CCC(C(N)=O)C(C)(C)C3)s2)c1 (stereo not shown) [Example 119-127]
- IC50 (rhSYK): < 100 nM

SMILES: Cc1cc(Nc2nccc(C(F)(F)F)n2)cc(-c2cnc([C@]3(O)CC[C@@H](C(N)=O)C(C)(C)C3)s2)c1 [Example 119-131]
- IC50 (rhSYK): < 100 nM

SMILES: COc1ccnc(Nc2cc(C)cc(-c3cnc([C@@]4(O)CC[C@H](C(=O)NCC#N)C(C)(C)C4)s3)c2)n1 [Example 119-133]
- IC50 (rhSYK): < 100 nM

SMILES: COc1ccnc(Nc2cc(C)cc(-c3cnc([C@@]4(O)CC[C@H](C(=O)NCc5cccnc5)C(C)(C)C4)s3)c2)n1 [Example 119-134]
- IC50 (rhSYK): < 100 nM

SMILES: Cc1cc(Nc2nccc(C)n2)cc(-c2cnc([C@@]3(O)CC[C@H](C(=O)NCCCN4CCCC4=O)C(C)(C)C3)s2)c1 [Example 119-135]
- IC50 (rhSYK): < 100 nM

SMILES: Cc1cc(Nc2nccc(C(F)(F)F)n2)cc(-c2cnc([C@@]3(O)CC[C@H](C(=O)Nc4cccnc4)C(C)(C)C3)s2)c1 [Example 119-136]
- IC50 (rhSYK): < 100 nM

SMILES: Cc1cc(Nc2nccc(C(F)(F)F)n2)cc(-c2cnc([C@]3(O)CC[C@@H](C(=O)N4CCc5cc(O)c(O)cc5C4)CC3)s2)c1 [Example 119-138]
- IC50 (rhSYK): < 100 nM

SMILES: COc1cccc(N2CCN(C(=O)C3CCC(O)(c4ncc(-c5cc(C)cc(Nc6nccc(C(F)(F)F)n6)c5)s4)CC3)CC2)c1 (stereo not shown) [Example 119-139]
- IC50 (rhSYK): < 100 nM

SMILES: COCc1cc(Nc2nccc(C(F)(F)F)n2)cc(-c2cnc(C3(O)CCC(C(N)=O)C(C)C3)s2)c1 (stereo not shown) [Example 119-142]
- IC50 (rhSYK): < 100 nM

SMILES: COCc1cc(Nc2nccc(C(F)(F)F)n2)cc(-c2cnc([C@@]3(O)CC[C@H](C(N)=O)C(C)(C)C3)s2)c1 [Example 119-143]
- IC50 (rhSYK): < 100 nM

SMILES: CC1(C)C[C@@](O)(c2ncc(-c3cc(Cl)cc(Nc4nccc(C(F)(F)F)n4)c3)s2)CC[C@@H]1C(N)=O [Example 119-144]
- IC50 (rhSYK): < 100 nM

SMILES: NC(=O)[C@H]1CC[C@](O)(c2ncc(-c3cc(Cl)cc(Nc4nccc(C(F)(F)F)n4)c3)s2)CC1 [Example 119-145]
- IC50 (rhSYK): < 100 nM

SMILES: Cc1cc(Nc2nccc(C(F)(F)F)n2)cc(-c2cnc([C@]3(O)CC[C@@H](C(=O)NC(CO)CO)CC3)s2)c1 [Example 191-33]
- IC50 (rhSYK): < 100 nM

SMILES: Cc1cc(Nc2nccc(C(F)(F)F)n2)cc(-c2cnc(C3(O)CCC(C(=O)NCc4cccnc4)CC3)s2)c1 (stereo not shown) [Example 191-52]
- IC50 (rhSYK): < 100 nM

SMILES: Cc1cc(Nc2nccc(C(F)(F)F)n2)cc(-c2cnc([C@]3(O)CC[C@@H](C(=O)NCc4ccncc4)CC3)s2)c1 [Example 191-53]
- IC50 (rhSYK): < 100 nM

SMILES: CC1(C)CC(O)(c2ncc(-c3cc(CO)cc(Nc4nccc(C(F)(F)F)n4)c3)s2)CCC1C(N)=O (stereo not shown) [Example 191-141]
- IC50 (rhSYK): < 100 nM

SMILES: Oc1cccc(Nc2ncc(F)c(Nc3cccc(O)c3)n2)c1 [Example R112]
- decrease in PGD2 (PGD2): statistically significant decrease
